This passage reports IC50 results from US20260035403A1, “NUCLEOSIDE LINE-1 INHIBITORS” (TRANSPOSON THERAPEUTICS, INC., priority 2022, published 2026).

Bounds are passed on as bounds.

The term IC50 denotes the midpoint of a concentration-inhibition curve. A lower IC50 goes with inhibition by little substance.

The first test relates to human LINE-1. In words: Human LINE-1 retrotransposition assay (HeLa cell-based dual-luciferase reporter). The note with it: Homo sapiens, HeLa, 72 h, Human LINE-1 activity inhibition; HeLa cells, reporter plasmid pYX017, Firefly/Renilla, 72 h incubation. In short, it runs like this: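 HeLa cells transfected with pYX017 dual-luciferase L1 reporter and treated with serially diluted compound (0.2% DMSO final) for 72 h at 37° C. Relative L1 activity as Firefly/Renilla ratio; IC50 from four-parameter logistic fit.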
(In a reporter assay the amount or activity of a reporter protein is the signal.)
Take `C#C[C@]1(CO)O[C@@H](n2ccc(N)nc2=O)C(F)(F)[C@@H]1O` [compound 200, 4-amino-1-((2R,4R,5R)-5-ethynyl-3,3-difluoro-4-hydroxy-5-(hydroxymethyl)tetrahydrofuran-2-yl)pyrimidin-2(1H)-one]: inhibition was half-maximal at 414 µM (IC50). Same read-out and setting: the value for `C#C[C@]1(CO)O[C@@H](N2C=NC3C(NC)=NC(F)=NC32)C[C@@H]1O` (stereo partly drawn) [compound 93, (2R,3S,5R)-2-ethynyl-5-(2-fluoro-6-(methylamino)-4,5-dihydro-9H-purin-9-yl)-2-(hydroxymethyl)tetrahydrofuran-3-ol] was 15 µM; that for `C#C[C@@]1(CO)C=C[C@H](n2cc(OC)c(=O)[nH]c2=O)O1` [compound 36, 1-((2R,5R)-5-ethynyl-5-(hydroxymethyl)-2,5-dihydrofuran-2-yl)-5-methoxypyrimidine-2,4(1H,3H)-dione] was greater than 12.5 µM. Same read-out and setting: the value for `Cc1cn([C@H]2C=C[C@](CO)(C3CC3)O2)c(=O)[nH]c1=O` [compound 47, 1-((2R,5S)-5-cyclopropyl-5-(hydroxymethyl)-2,5-dihydrofuran-2-yl)-5-methylpyrimidine-2,4(1H,3H)-dione] was greater than 25 µM. `C#C[C@]1(CO)OC(n2cc(C3CC3)c(=O)[nH]c2=O)C[C@@H]1O` (stereo partly drawn) [compound 52, 5-cyclopropyl-1-((4S,5R)-5-ethynyl-4-hydroxy-5-(hydroxymethyl)tetrahydrofuran-2-yl)pyrimidine-2,4(1H,3H)-dione] displayed an IC50 greater than 50 µM. The same measure, in the same setting: then `C#C[C@]1(CO)OC(n2cnc(C(N)=O)n2)C[C@@H]1O` (stereo partly drawn) [Cpd. No. 11, 1-((4S,5R)-5-ethynyl-4-hydroxy-5-(hydroxymethyl)tetrahydrofuran-2-yl)-1H-1,2,4-triazole-3-carboxamide], with greater than 50 µM; and `C#C[C@@]1(CO)O[C@@H](n2ccc(N)nc2=O)C[C@H]1O` [Cpd. No. 77, 4-amino-1-((2R,4R,5S)-5-ethynyl-4-hydroxy-5-(hydroxymethyl)tetrahydrofuran-2-yl)pyrimidin-2(1H)-one], with greater than 6.25 µM. Consider `C[C@]1(CO)O[C@@H](n2cc(F)c(=O)[nH]c2=O)[C@H](O)[C@@H]1O` [compound 189, 1-((2R,3R,4S,5R)-3,4-dihydroxy-5-(hydroxymethyl)-5-methyltetrahydrofuran-2-yl)-5-fluoropyrimidine-2,4(1H,3H)-dione], for which half-maximal inhibition (IC50) was put at 9.17 µM.

Still in this test, the particulars now being: Human LINE-1 activity inhibition; HeLa cells, reporter plasmid pYX017, Firefly/Renilla, 72 h incubation.
Consider `C#C[C@@]1(CO)C=C[C@H](n2cc(F)c(=O)[nH]c2=O)O1` [Cpd. No. 19, 1-((2R,5R)-5-ethynyl-5-(hydroxymethyl)-2,5-dihydrofuran-2-yl)-5-fluoropyrimidine-2,4(1H,3H)-dione], for which the IC50 was greater than 50 µM.
